Laboratory results from US10611740B2, “Aryl dihydro-2H-benzo[b][1,4]oxazine sulfonamide and related compounds for use as agonists of RORγ and the treatment of disease” (Lycera Corporation, priority 2015, dated 2020).

Tests used:
RORγ-LBD = molecular target: T1, RORγ-LBD (Homo sapiens, UniProt P51449); assay: RORγ-Ligand Binding Domain (LBD) TR-FRET Assay; format: biochemical;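 as to TR-FRET Assay Max Response: 665/615 nm ratio relative to signal without ursolic acid or compound set at 100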
T1 construct: made in house; host or cells: SF9 cells (baculovirus)
T1 sequence (P51449 269-508 limits assumed): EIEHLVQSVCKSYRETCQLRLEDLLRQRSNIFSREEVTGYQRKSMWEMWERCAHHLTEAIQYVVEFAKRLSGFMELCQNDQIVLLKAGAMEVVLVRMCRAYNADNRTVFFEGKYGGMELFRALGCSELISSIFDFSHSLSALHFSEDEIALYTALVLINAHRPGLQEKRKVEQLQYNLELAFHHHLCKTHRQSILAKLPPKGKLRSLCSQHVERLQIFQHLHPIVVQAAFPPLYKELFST
In short: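 TR-FRET read-out using a biotin-tagged SRC1 coactivator LXXLL peptide (200 nM final), with the antagonist ursolic acid present at 2 μM final. Receptor is His-tagged LBD expressed in SF9 cells, ~3 nM final in pH 7.0 Tris/KCl/EDTA/DTT/BSA buffer; compounds in 1% DMSO final.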

Gal4-RORγ-LBD = molecular target: T2, Gal4-RORγ-LBD (Homo sapiens, UniProt P51449); assay: Gal4-RORγ Luciferase Reporter Assay in HEK-293T Cells; format: cell-based; details: HEK-293 cells
T2 construct: expressed in transfected cells; host or cells: HEK-293 cells (pcDNA3.1neo plasmid)
T2 sequence (P51449 269-508 limits assumed): T1 sequence (P51449 269-508 limits assumed)
In short: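 Luminescence read-out (One-Glo, 10 min RT) after overnight compound exposure at 37 °C in HEK-293 cells carrying Gal4-RORγ-LBD plus a Gal4-luciferase reporter, in the presence of 2 μM ursolic acid. Max Response is the upper plateau from a 4-parameter logistic fit, normalized to untreated signal = 100.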

[1] = luciferase reporter, with 2 μM ursolic acid

SMILES | EC50 (RORγ-LBD) [nM] | EC50 (Gal4-RORγ-LBD; [1]) [nM] | EC50 (Gal4-RORγ-LBD; 2 μM ursolic acid) [nM] | TR-FRET Assay Max Response (RORγ-LBD) | Gal4-RORγ Assay Max Response (Gal4-RORγ-LBD; [1]) | Gal4-RORγ Assay Max Response (Gal4-RORγ-LBD; 2 μM ursolic acid)
COc1ncccc1-c1ccc2c(c1)N(S(=O)(=O)c1cccc(C(F)(F)F)c1)C[C@H](CCC(=O)O)O2 [Compound 2BG, (S)-3-(6-(2-methoxypyridin-3-yl)-4-((3-(trifluoromethyl)-phenyl)sulfonyl)-3,4-dihydro-2H-benzo[b][1,4]oxazin-2-yl)propanoic acid] | < 500 | 500 to 5000 | – | *** (The symbol “***” indicates a value in the range of greater than 150 to 200) | ** (The symbol “**” indicates a value in the range of greater than 90 to 150) | –
C[C@H](CC(=O)O)[C@H]1CN(S(=O)(=O)c2cccc(C(F)(F)F)c2)c2cc(-c3cc(F)cc(F)c3Cl)ccc2O1 [Compound 80B, (R)-3-((S)-6-(2-chloro-3,5-difluorophenyl)-4-((3-(trifluoromethyl)phenyl)sulfonyl)-3,4-dihydro-2H-benzo[b][1,4]-oxazin-2-yl)butanoic acid] | < 500 | – | 500 to 5000 | ** (The symbol “**” indicates a value in the range of greater than 90 to 150) | – | ** (The symbol “**” indicates a value in the range of greater than 90 to 150)
NS(=O)(=O)CCC(=O)NC[C@H]1CN(S(=O)(=O)c2cccc(C(F)(F)F)c2)c2cc(-c3cccc(C(F)(F)F)n3)ccc2O1 [Compound 30BG, (S)-3-sulfamoyl-N-((4-((3-(trifluoromethyl)phenyl)-sulfonyl)-6-(6-(trifluoro-methyl)pyridin-2-yl)-3,4-dihydro-2H-benzo[b][1,4]-oxazin-2-yl)methyl)-propanamide] | < 500 | 500 to 5000 | – | *** (The symbol “***” indicates a value in the range of greater than 150 to 200) | ** (The symbol “**” indicates a value in the range of greater than 90 to 150) | –
O=C(O)CC[C@H]1CN(S(=O)(=O)c2cccc(C(F)(F)F)c2)c2cc(-c3ccnc(C(F)(F)F)c3)ccc2O1 [Compound 2AA, (S)-3-(4-((3-(trifluoromethyl)-phenyl)sulfonyl)-6-(2-(trifluoromethyl)pyridin-4-yl)-3,4-dihydro-2H-benzo[b][1,4]oxazin-2-yl)propanoic acid] | < 500 | > 10000 | – | **** (The symbol “****” indicates a value greater than 200) | – | –
C[C@@H](O)C(=O)NC[C@H]1CN(S(=O)(=O)c2cccc(C(F)(F)F)c2)c2cc(-c3cc(F)ccc3F)ccc2O1 [Compound 30AF, (R)-N-(((S)-6-(2,5-difluoro-phenyl)-4-((3-(trifluoromethyl)-phenyl)sulfonyl)-3,4-dihydro-2H-benzo[b][1,4]oxazin-2-yl)-methyl)-2-hydroxypropanamide] | < 500 | < 500 | – | *** (The symbol “***” indicates a value in the range of greater than 150 to 200) | ** (The symbol “**” indicates a value in the range of greater than 90 to 150) | –
O=C(O)[C@@]1(C[C@H]2CN(S(=O)(=O)c3cccc(C(F)(F)F)c3)c3cc(-c4cc(F)ccc4F)ccc3O2)CCNC1=O [Compound 77B, (R)-3-(((S)-6-(2,5-difluorophenyl)-4-((3-(trifluoromethyl)phenyl)-sulfonyl)-3,4-dihydro-2H-benzo[b][1,4]oxazin-2-yl)methyl)-2-oxopyrrolidine-3-carboxylic acid] | < 500 | – | < 500 | *** (The symbol “***” indicates a value in the range of greater than 150 to 200) | – | ** (The symbol “**” indicates a value in the range of greater than 90 to 150)
CC(C)(O)C(=O)NC[C@H]1CN(S(=O)(=O)c2cccc(OC(F)F)c2)c2cc(-c3cc(F)ccc3F)ccc2O1 [Compound 30R, (S)-N-((4-((3-(difluoromethoxy)-phenyl)sulfonyl)-6-(2,5-difluorophenyl)-3,4-dihydro-2H-benzo[b][1,4]oxazin-2-yl)methyl)-2-hydroxy-2-methylpropanamide] | < 500 | < 500 | – | **** (The symbol “****” indicates a value greater than 200) | ** (The symbol “**” indicates a value in the range of greater than 90 to 150) | –
O=C(O)CC[C@H]1CN(S(=O)(=O)c2cccc(C(F)(F)F)c2)c2cc(-c3cccc(Cl)c3)cc(F)c2O1 [Compound 8, (S)-3-(6-(3-chlorophenyl)-8-fluoro-4-((3-(trifluoromethyl)phenyl)sulfonyl)-3,4-dihydro-2H-benzo[b][1,4]oxazin-2-yl)propanoic acid] | < 500 | < 500 | – | **** (The symbol “****” indicates a value greater than 200) | ** (The symbol “**” indicates a value in the range of greater than 90 to 150) | –
COc1cccc(-c2ccc3c(c2)N(S(=O)(=O)c2cccc(C(F)(F)F)c2)C[C@H](CCCOc2noc(=O)[nH]2)O3)c1 [Compound 36B, (S)-3-(3-(6-(3-methoxyphenyl)-4-((3-(trifluoromethyl)phenyl)-sulfonyl)-3,4-dihydro-2H-benzo[b][1,4]oxazin-2-yl)propoxy)-1,2,4-oxadiazol-5(4H)-one] | < 500 | < 500 | – | **** (The symbol “****” indicates a value greater than 200) | ** (The symbol “**” indicates a value in the range of greater than 90 to 150) | –

Further lines, with some results ahead:

EC50 (RORγ-LBD) [nM] | EC50 (Gal4-RORγ-LBD; [1]) [nM] | EC50 (Gal4-RORγ-LBD; 2 μM ursolic acid) [nM] | SMILES | TR-FRET Assay Max Response (RORγ-LBD) | Gal4-RORγ Assay Max Response (Gal4-RORγ-LBD; [1]) | Gal4-RORγ Assay Max Response (Gal4-RORγ-LBD; 2 μM ursolic acid)
< 500 | < 500 | – | O=C(O)CC[C@H]1CN(S(=O)(=O)c2cccc(C(F)(F)F)c2)c2cc(-c3cccc(OC(F)F)c3)ccc2O1 [Compound 4T, (S)-3-(6-(3-(difluoromethoxy)-phenyl)-4-((3-(trifluoromethyl)-phenyl)sulfonyl)-3,4-dihydro-2H-benzo[b][1,4]oxazin-2-yl)propanoic acid] | **** (The symbol “****” indicates a value greater than 200) | **** (The symbol “****” indicates a value greater than 200) | –
< 500 | 500 to 5000 | – | CC(C)(C[C@H]1CN(S(=O)(=O)c2cccc(C(F)(F)F)c2)c2cc(-c3cc(F)ccc3Cl)ccc2O1)C(=O)O [Compound 32I, (S)-3-(6-(2-chloro-5-fluorophenyl)-4-((3-(trifluoromethyl)phenyl)sulfonyl)-3,4-dihydro-2H-benzo[b][1,4]oxazin-2-yl)-2,2-dimethylpropanoic acid] | **** (The symbol “****” indicates a value greater than 200) | *** (The symbol “***” indicates a value in the range of greater than 150 to 200) | –
< 500 | – | < 500 | COc1cc(F)cc(-c2ccc3c(c2)N(S(=O)(=O)c2cccc(C(F)(F)F)c2)C[C@H](CC(C)(C)C(=O)O)O3)c1 [Compound 32AG, (S)-3-(6-(3-fluoro-5-methoxy-phenyl)-4-((3-(trifluoromethyl)-phenyl)sulfonyl)-3,4-dihydro-2H-benzo[b][1,4]oxazin-2-yl)-2,2-dimethylpropanoic acid] | **** (The symbol “****” indicates a value greater than 200) | – | ** (The symbol “**” indicates a value in the range of greater than 90 to 150)
< 500 | – | < 500 | CC(C)(C[C@H]1CN(S(=O)(=O)c2cccc(C(F)(F)F)c2)c2cc(-c3c(Cl)cccc3Cl)ccc2O1)C(=O)O [Compound 32AU, (S)-3-(6-(2,6-dichlorophenyl)-4-((3-(trifluoromethyl)phenyl)-sulfonyl)-3,4-dihydro-2H-benzo[b][1,4]oxazin-2-yl)-2,2-dimethylpropanoic acid] | ** (The symbol “**” indicates a value in the range of greater than 90 to 150) | – | ** (The symbol “**” indicates a value in the range of greater than 90 to 150)
< 500 | – | 500 to 5000 | Cc1cccc(C)c1-c1ccc2c(c1)N(S(=O)(=O)c1cccc(C(F)(F)F)c1)C[C@H](CC(C)(C)C(=O)O)O2 [Compound 32BA, (S)-3-(6-(2,6-dimethylphenyl)-4-((3-(trifluoromethyl)phenyl)-sulfonyl)-3,4-dihydro-2H-benzo[b][1,4]oxazin-2-yl)-2,2-dimethylpropanoic acid] | *** (The symbol “***” indicates a value in the range of greater than 150 to 200) | – | ** (The symbol “**” indicates a value in the range of greater than 90 to 150)
< 500 | – | < 500 | Cc1cccc(-c2ccc3c(c2)N(S(=O)(=O)c2cccc(C(F)(F)F)c2)C[C@H](CC(C)(C)C(=O)O)O3)c1Cl [Compound 32AX, (S)-3-(6-(2-chloro-3-methyl-phenyl)-4-((3-(trifluoromethyl)-phenyl)sulfonyl)-3,4-dihydro-2H-benzo[b][1,4]oxazin-2-yl)-2,2-dimethylpropanoic acid] | ** (The symbol “**” indicates a value in the range of greater than 90 to 150) | – | ** (The symbol “**” indicates a value in the range of greater than 90 to 150)
